Measurements taken from ChEMBL document CHEMBL1144134, “New biphenyl compounds with DNA strand-scission activity from Clusia paralicola” (J Nat Prod, 1999).
In brackets after ≈: the same amount, converted by molar mass. Activity calls are given as the source filed them. No cut-off for these calls is given here.

Key:
KB = test: Cytotoxicity against human KB cells; format: functional, cell-based
[1] = Induction of DNA strand-scission activity assessed as relaxation of supercoiled DNA at 2.5 ug/ml; design: scale not given: the % may be the effect or the level left

SMILES | EC50 (KB) [µg/mL] | Activity [1]
CC(C)=CCC/C(C)=C/Cc1cc(O)c(O)cc1-c1cc(O)c(CC=C(C)C)c(O)c1 [CLUSIPARALICOLINE A] | 3.8 (≈ 8.99 µM) | 77%
CC(C)=CCC/C(C)=C/Cc1cc(O)c(O)cc1-c1cc(O)c2c(c1)OC(C)(C)C=C2 [CLUSIPARALICOLINE B] | 4.5 (≈ 10.7 µM) | 65%
CC1(C)C=Cc2c(O)cc(-c3ccc(O)cc3)cc2O1 [CLUSIPARALICOLINE C] | 5.3 (≈ 19.8 µM) | inactive
